Structures are written as SMILES.

Data on twelve molecules can be found in ChEMBL document CHEMBL1135316, “Parallel solution- and solid-phase synthesis of spirohydantoin derivatives as neurokinin-1 receptor ligands” (Bioorg Med Chem Lett, 2002).

Chain of Substance-P receptor (P25103 whole entry): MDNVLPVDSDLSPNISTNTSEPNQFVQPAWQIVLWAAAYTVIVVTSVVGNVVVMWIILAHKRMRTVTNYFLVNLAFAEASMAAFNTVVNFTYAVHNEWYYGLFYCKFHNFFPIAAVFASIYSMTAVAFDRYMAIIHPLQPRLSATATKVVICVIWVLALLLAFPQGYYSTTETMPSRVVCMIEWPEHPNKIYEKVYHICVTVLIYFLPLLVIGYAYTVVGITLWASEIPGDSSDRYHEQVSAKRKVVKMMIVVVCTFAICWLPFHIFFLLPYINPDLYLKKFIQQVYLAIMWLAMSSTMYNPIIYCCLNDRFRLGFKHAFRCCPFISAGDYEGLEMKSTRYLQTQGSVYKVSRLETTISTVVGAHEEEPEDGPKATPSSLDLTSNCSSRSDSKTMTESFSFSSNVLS

This experiment concerns the target Substance-P receptor (Homo sapiens, UniProt P25103). The experiment is described as follows: Affinity for human Tachykinin receptor 1 expressed in CHO cells. The experiment is classed as cell-based.
Broadly, the Ki is a measure of affinity in units of concentration, obtained from inhibition or displacement. Lower therefore signals higher affinity. In turn, `N#Cc1cccc(CN2CCC3(CC2)NC(=O)N(Cc2cc(C(F)(F)F)cc(C(F)(F)F)c2)C3=O)c1` showed a Ki of 107 nM.

Consider `O=C1NC2(CCN(S(=O)(=O)CCc3cccc4ccccc34)CC2)C(=O)N1Cc1cc(C(F)(F)F)cc(C(F)(F)F)c1`, for which the Ki is 74.1 nM.

The molecule `O=C(c1cc(C(F)(F)F)cc(C(F)(F)F)c1)N1CCC2(CC1)NC(=O)N(Cc1cccc(-c3ccccc3)c1)C2=O` had a Ki of 138 nM. This Ki is about 1.9-fold higher than that of the molecule before.

`CSc1ccc(N2C(=O)NC3(CCN(C(=O)c4cc(C(F)(F)F)cc(C(F)(F)F)c4)CC3)C2=O)cc1` showed a Ki of 132 nM.

With `O=C(c1cccc2ccccc12)N1CCC2(CC1)NC(=O)N(c1cc(C(F)(F)F)cc(C(F)(F)F)c1)C2=O`, the Ki was 339 nM.

Turning to `Cc1cc(C)c(C(=O)N2CCC3(CC2)NC(=O)N(c2cc(C(F)(F)F)cc(C(F)(F)F)c2)C3=O)c(C)c1`, the Ki is 324 nM.

Consider `O=C(c1cc(C(F)(F)F)cc(C(F)(F)F)c1)N1CCC2(CC1)NC(=O)N(CCc1c[nH]c3ccccc13)C2=O`, for which the affinity, expressed as Ki, was 575 nM.

For the molecule `CN1C(=O)N(Cc2cc(C(F)(F)F)cc(C(F)(F)F)c2)C2(CCN(C(=O)c3c(Cl)cccc3Cl)CC2)C1=O`, the affinity corresponds to a Ki of 646 nM.

`CN1C(=O)N(Cc2cc(C(F)(F)F)cc(C(F)(F)F)c2)C2(CCN(C(=O)CN3CCC(Cc4ccccc4)CC3)CC2)C1=O`: the Ki was 3720 nM.

In turn, `Cc1cccc(NC(=O)N2CCC3(CC2)NC(=O)N(Cc2cc(C(F)(F)F)cc(C(F)(F)F)c2)C3=O)c1` showed a Ki of 45.7 nM.

As for `O=C(c1cc(C(F)(F)F)cc(C(F)(F)F)c1)N1CCC2(CC1)NC(=O)N(Cc1ccc3c(c1)OCO3)C2=O`, the affinity, expressed as Ki, was 245 nM.

`CN1C(=O)N(Cc2cc(C(F)(F)F)cc(C(F)(F)F)c2)C2(CCN(C(=O)c3cccc4ccccc34)CC2)C1=O` showed a Ki of 457 nM.
